Assay results as given in patent publication US20160200789A1, “IL4 CONJUGATED TO ANTIBODIES AGAINST EXTRACELLULAR MATRIX COMPONENTS” (PHILOGEN S.P.A., priority 2013, published 2016).

Columns and labels:
[1] = system: A20 lymphoma; experiment: Therapy studies in A20 tumour-bearing mice; conditions: A20, F8-IL4 vs KSF-IL4 study
Text: (§1) Data represent mean tumour volumes (±SEM), n=5 mice per group. […] Data represent mean tumour volumes (±SEM), n=5 mice per group.
Differences in tumor volume, % ID/g and Tumor-to-blood ratio between therapeutic groups were compared using Graphpad Prism's repeated measures (mixed model) ANOVA analysis.
For this, as well as the other experiments described below, F9 teratocarcinoma (CRL-1720; ATCC, Molsheim Cedex, France), CT26 colon carcinoma (CRL-2638; ATCC, Molsheim Cedex, France) and A20 lymphoma (TIB-208; ATCC, Molsheim Cedex, France) were grown according to the supplier's protocol and tumour cells implanted subcutaneously in the flank using 25×10^6 cells (F9), 2×10^6 cells (CT26) or 8×10^6 cells (A20). F9 teratocarcinoma cells were implanted into 129/SvEv mice (Charles River, Sulzfeld, Germany), CT26 colon carcinoma cells were implanted into Balb/c mice (Elevage Janvier, Le Genest-St-Isle, France) and A20 lymphoma cells were implanted into Balb/c mice (Elevage Janvier, Le Genest-St-Isle, France). Mice were sacrificed when tumour volumes reached a maximum of 2000 mm^3.

[2] = system: CTLL2 cells; experiment: CTLL2 cell proliferation bioactivity assay; format: cell-based; conditions: 24 h; for EC50: CTLL2 cells, 20000 cells/well
Procedure: The biological activity of murine IL4 was determined by its ability to stimulate the proliferation of CTLL2 cells. […] After incubation at 37° C. for 24 h, cell proliferation was determined with Cell Titer Aqueous One Solution (Promega).

[3] = system: CT26 colon carcinoma; experiment: Therapy studies in CT26 tumour-bearing mice
Text: as §1
In the description of the below experiments, data are expressed as the mean (±SEM). Differences in tumor volume, % ID/g and Tumor-to-blood ratio between therapeutic groups were compared using Graphpad Prism's repeated measures (mixed model) ANOVA analysis.
Mice were sacrificed when tumour volumes reached a maximum of 2000 mm^3.
In order to study a second immunocompetent mouse model of cancer, the inventors focused on Balb/c mice (obtained from Elevage Janvier [France]) bearing subcutaneous CT26 tumours of colorectal origin.

[4] = biological target: T1, EDA domain of fibronectin (Homo sapiens, UniProt P02751); experiment: Surface plasmon analysis (BIAcore) on EDA antigen-coated sensor chip; format: binding
T1 construct: surface plasmon analysis (BIAcore) on an EDA antigen-coated sensor chip
T1 sequence (P02751 1727-1814 limits assumed): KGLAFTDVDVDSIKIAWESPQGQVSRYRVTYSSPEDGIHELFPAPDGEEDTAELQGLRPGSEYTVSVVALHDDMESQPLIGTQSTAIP
Text: The fusion protein was expressed and purified to homogeneity as described for F8-IL4 above.

[5] = system: endometriotic lesions in Balb/c mice; experiment: Endometriosis model in Balb/c mice; format: in vivo, mouse; conditions: 200 μg/mouse i.v. days 1, 4, 7; day 15; vs PBS
Procedure: Endometriosis was induced in sixty eight-week old female Balb/c mice according to the protocol described by Somigliana et al. (1999).
One day after the implantation of endometrial tissue, pairs of mice (who received tissue from the same donor) were treated either with intravenous (i.v.) injections of F8-murine IL4 (200 μg/mouse; SEQ ID NO: 21) or PBS (group 1); or with i.v. injections of KSF-murine IL4 (200 μg/mouse; SEQ ID NO: 44) or PBS (group 2). The same treatment was repeated at days 4 and 7. Mice were sacrificed at day 15.

[6] = system: F9 teratocarcinoma; experiment: Quantitative biodistribution in F9 tumour-bearing mice; format: in vivo, mouse; conditions: 15 μg radioiodinated protein i.v., 24 hours
Procedure: The in vivo targeting performance was assessed by quantitative biodistribution where 15 μg of radioiodinated fusion protein was injected i.v. into the lateral tail vein of immunocompetent 11-12 week old female Sv129Ev mice (obtained from Charles River [Germany]), bearing sub-cutaneously grafted F9 tumours (for labelling protocol, see (Pasche et al. 2011)). Mice were sacrificed 24 hours after injection, organs were excised, weighed and radioactivity was measured using a Packard Cobra γ counter.

[7] = system: Fibrosarcoma Wehi-164; experiment: Therapy of Wehi-164 fibrosarcoma-bearing mice; format: in vivo, mouse; conditions: 4 cycles i.v. every 48 h, equimolar doses
Procedure: Fibrosarcoma Wehi-164 exponentially growing cells were harvested, repeatedly washed and re-suspended in serum-free medium prior to injection. The tumor cells were injected subcutaneously (5×10^6) in the right flank of Balb/c mice. Tumor weights (mg=mm^3) were calculated as follows: (length [mm]×width^2 [mm^2])/2.
Treatment started when tumors reached approximately 100 mg. Mice received 4 cycles of therapy, every 48 h starting from day 5 after tumor cell injection. L19-IL4 (SEQ ID NO:64) was administered i.v. at the dose of 130 μg/mouse; equimolar amounts of KSF-IL4 (130 μg/mouse) (SEQ ID NO:44), KSF-IL10 (150 μg/mouse) (SEQ ID NO:65) and L19-IL10 (150 μg/mouse) (SEQ ID NO:66) were administered. Control mice received sterile vehicle solution (PBS). The results are shown in FIG. 16 (mean tumour weight over time). The number of mice in each treatment group was 3-4.

[8] = system: tumour neovascular structures in murine F9, CT26 and A20 tumours; experiment: Immunofluorescence on untreated tumour sections; design: species or system mouse; conditions: biotinylated protein on F9, CT26 and A20 tumour sections
Text: For detection streptavidin-Alexa Fluor 488 and anti-rat-Alexa Fluor 594 (Invitrogen) were used. Slides were mounted with fluorescent mounting medium (Dako) and analyzed with an Axioskop2 mot plus microscope (Zeiss).

[9] = system: F9 teratocarcinoma; experiment: Biodistribution of F8-hIL4 and F8-hIL4-N284Q in F9 tumour-bearing mice; format: in vivo, mouse; conditions: 10 μg radioiodinated antibody i.v., 24 hours
Procedure: 11-12 weeks old female 129/SvEv mice were obtained from Charles River (Sulzfeld, Germany). Tumor cells were implanted subcutaneously in the flank of the mice using 25×10^6 cells.
The in vivo targeting performance of F8-hIL4, and its unglycosylated variant F8-hIL4-N284Q were evaluated in quantitative biodistribution studies. The antibodies were radioiodinated using […] and Chloramine T hydrate according to the protocol of Pasche et al. 2011. 10 μg of each radioiodiated antibody were injected into the lateral tail vein of the mice. Injected mice were sacrificed 24 hours after injection. Organs were then excised and radioactivity was counted in Cobra gamma counter (Packard, Meriden, Conn.).

[10] = system: F9 teratocarcinoma; experiment: Therapy studies in F9 teratocarcinoma-bearing mice; format: in vivo, mouse; conditions: mouse, in vivo
Procedure: In a dose finding study, F9 tumour-bearing mice were randomly grouped (n=5) and injected intravenously (i.v.) into the lateral tail vein when tumours were clearly palpable. […] The therapeutic antibodies were all dissolved in phosphate buffered saline (PBS) and this buffer was also used in the negative control treatment groups. The mice were monitored daily and tumour volume was measured with a calliper (volume=length×width^2×0.5).

## KSF-IL4: antibody KSF (specific to hen egg lysozyme, negative control) in diabody format fused to murine interleukin 4 [reference compound]
[1]
  statistical significance, tumour volume vs PBS: not statistically significant
[2]
  EC50: 0.02 nM
[2]; CTLL2 proliferation
  biological cytokine activity: comparable to that of recombinant murine IL4
[3]; 90 μg i.v. every 48 h
  therapeutic performance: not better than saline
[3]; CT26, F8-IL4 vs KSF-IL4 study
  statistical significance, tumour volume vs PBS: not statistically significant
[4]
  affinity for the cognate antigen: retained a high-affinity for the cognate antigen
[5]
  number of the endometriotic lesions: did not have a significant effect
  volume of the endometriotic lesions: did not have a significant effect
[6]
  accumulation at the tumour site (% ID/g): not observed
[7]
  therapeutic activity (tumour weight): do not promote any significant therapeutic activity
[8]
  recognition of tumour neovascular structures: not

## KSF-IL10: KSF antibody (hen egg lysozyme) conjugated to IL10; untargeted IL10
[7]
  therapeutic activity (tumour weight): do not promote any significant therapeutic activity

## recombinant IL4: recombinant murine IL4 (eBioscience)
[2]
  EC50: 0.028 nM

B1: F8-hIL4: F8 diabody fused to human IL4, glycosylated (protein)
chain: EVQLLESGGGLVQPGGSLRLSCAASGFTFSLFTMSWVRQAPGKGLEWVSAISGSGGSTYYADSVKGRFTISRDNSKNTLYLQMNSLRAEDTAVYYCAKSTHLYLFDYWGQGTLVTVSSGGSGGEIVLTQSPGTLSLSPGERATLSCRASQSVSMPFLAWYQQKPGQAPRLLIYGASSRATGIPDRFSGSGSGTDFTLTISRLEPEDFAVYYCQQMRGRPPTFGQGTKVEIKSSSSGSSSSGSSSSGHKCDITLQEIIKTLNSLTEQKTLCTELTVTDIFAASKNTTEKETFCRAATVLRQFYSHHEKDTRCLGATAQQFHRHKQLIRFLKRLDRNLWGLAGLNSCPVKEANQSTLENFLERLKTIMREKYSKCSS
modifications: Synthetic sequence Amino acid sequence of F8 - (human) IL4 of PCT/EP2014/053998
notes: F8 diabody fused to human IL4, glycosylated
[9]
  accumulation at the tumor site (% ID/g): comparable preferential accumulation at the tumor site

B2: F8-hIL4-N284Q: unglycosylated F8-human IL4 mutant, asparagine 284 substituted with glutamine (protein)
chain: EVQLLESGGGLVQPGGSLRLSCAASGFTFSLFTMSWVRQAPGKGLEWVSAISGSGGSTYYADSVKGRFTISRDNSKNTLYLQMNSLRAEDTAVYYCAKSTHLYLFDYWGQGTLVTVSSGGSGGEIVLTQSPGTLSLSPGERATLSCRASQSVSMPFLAWYQQKPGQAPRLLIYGASSRATGIPDRFSGSGSGTDFTLTISRLEPEDFAVYYCQQMRGRPPTFGQGTKVEIKSSSSGSSSSGSSSSGHKCDITLQEIIKTLNSLTEQKTLCTELTVTDIFAASKQTTEKETFCRAATVLRQFYSHHEKDTRCLGATAQQFHRHKQLIRFLKRLDRNLWGLAGLNSCPVKEANQSTLENFLERLKTIMREKYSKCSS
modifications: Synthetic sequence Amino acid sequence of F8 - (human) IL4 N284Q mutant of PCT/EP2014/053998
notes: unglycosylated F8-human IL4 mutant, asparagine 284 substituted with glutamine
[9]
  accumulation at the tumor site (% ID/g): comparable preferential accumulation at the tumor site

B3: F8-IL12: IL12-based immunocytokine: murine IL12 fused to single chain F8 diabody (protein)
chain: MWELEKDVYVVEVDWTPDAPGETVNLTCDTPEEDDITWTSDQRHGVIGSGKTLTITVKEFLDAGQYTCHKGGETLSHSHLLLHKKENGIWSTEILKNFKNKTFLKCEAPNYSGRFTCSWLVQRNMDLKFNIKSSSSSPDSRAVTCGMASLSAEKVTLDQRDYEKYSVSCQEDVTCPTAEETLPIELALEARQQNKYENYSTSFFIRDIIKPDPPKNLQMKPLKNSQVEVSWEYPDSWSTPHSYFSLKFFVRIQRKKEKMKETEEGCNQKGAFLVEKTSTEVQCKGGNVCVQAQDRYYNSSCSKWACVPCRVRSGGGGSGGGGSGGGGSRVIPVSGPARCLSQSRNLLKTTDDMVKTAREKLKHYSCTAEDIDHEDITRDQTSTLKTCLPLELHKNESCLATRETSSTTRGSCLPPQKTSLMMTLCLGSIYEDLKMYQTEFQAINAALQNHNHQQIILDKGMLVAIDELMQSLNHNGETLRQKPPVGEADPYRVKMKLCILLHAFSTRVVTINRVMGYLSSAGSADGGEVQLLESGGGLVQPGGSLRLSCAASGFTFSLFTMSWVRQAPGKGLEWVSAISGSGGSTYYADSVKGRFTISRDNSKNTLYLQMNSLRAEDTAVYYCAKSTHLYLFDYWGQGTLVTVSSGGSGGEIVLTQSPGTLSLSPGERATLSCRASQSVSMPFLAWYQQKPGQAPRLLIYGASSRATGIPDRFSGSGSGTDFTLTISRLEPEDFAVYYCQQMRGRPPTFGQGTKVEIKSSSSGSSSSGSSSSGEVQLLESGGGLVQPGGSLRLSCAASGFTFSLFTMSWVRQAPGKGLEWVSAISGSGGSTYYADSVKGRFTISRDNSKNTLYLQMNSLRAEDTAVYYCAKSTHLYLFDYWGQGTLVTVSSGGSGGEIVLTQSPGTLSLSPGERATLSCRASQSVSMPFLAWYQQKPGQAPRLLIYGASSRATGIPDRFSGSGSGTDFTLTISRLEPEDFAVYYCQQMRGRPPTFGQGTKVEIK
modifications: Synthetic sequence Amino acid sequence of (murine)IL12-F8-F8 of PCT/EP2014/053998
notes: IL12-based immunocytokine: murine IL12 fused to single chain F8 diabody
[10]
  single-agent therapeutic activity: potent single-agent therapeutic activity

B4: L19-IL4: L19 diabody (anti-EDB of fibronectin) fused to murine IL4 (protein)
chain: EVQLLESGGGLVQPGGSLRLSCAASGFTFSSFSMSWVRQAPGKGLEWVSSISGSSGTTYYADSVKGRFTISRDNSKNTLYLQMNSLRAEDTAVYYCAKPFPYFDYWGQGTLVTVSSGGSGGEIVLTQSPGTLSLSPGERATLSCRASQSVSSSFLAWYQQKPGQAPRLLIYYASSRATGIPDRFSGSGSGTDFTLTISRLEPEDFAVYYCQQTGRIPPTFGQGTKVEIKSSSSGSSSSGSSSSGHIHGCDKNHLREIIGILNEVTGEGTPCTEMDVPNVLTATKNTTESELVCRASKVLRIFYLKHGKTPCLKKNSSVLMELQRLFRAFRCLDSSISCTMNESKSTSLKDFLESLKSIMQMDYS
modifications: Synthetic sequence Amino acid sequence of the L19-murine IL4 conjugate of PCT/EP2014/053998
[7]
  therapeutic activity (tumour weight): shows therapeutic activity
